Experimental data: article PMC4741889, “Ligand-based chemoinformatic discovery of a novel small molecule inhibitor targeting CDC25 dual specificity phosphatases and displaying in vitro efficacy against melanoma cells” (Oncotarget, 2015)

Columns and labels:
Assay type in all cases: cell-based, human
A2058 cells [1] = experiment: Apoptosis, subdiploid DNA content by PI flow cytometry, A2058 cells
Description: PI incorporation followed by flow cytometric analysis was used to detect the effect of 7 on the number of nuclei with a sub-diploid content, a typical hallmark of apoptosis. A time-dependent increase of apoptosis was evident in both A2058 and SAN cells and in particular, the effect of 7 on cell death program was already evident after 24-h treatment (Figure 7). […] To further investigate on the capacity of 7 to induce apoptosis, the enzymatic activity of caspase-3, the final effector of apoptotic program, was monitored.
[…] After each treatment, cells were harvested with trypsin, centrifuged and the pellet was resuspended in phosphate-buffered saline (PBS). For cell cycle analysis, cells were fixed with 70% (v/v) cold ethanol and stored at −20°C for 1 h. Then, cells were washed with cold PBS, centrifuged and the pellets were resuspended in 200 μL of a non-lysis solution containing 50 μg/mL PI. For the evaluation of apoptosis, cells were not fixed in ethanol and directly resuspended in 200 μL of a hypotonic lysis solution containing 50 μg/mL PI. After incubation at 4°C for 30 min, cells were analyzed with a FACScan flow cytometer (Becton Dickinson) for evaluating the distribution in cell cycle phases or the presence of nuclei with a DNA content lower than the diploid.

SAN cells = experiment: MTT cell growth rate, SAN melanoma cells; settings: 100 μM, 48 h, MTT
Description: The human melanoma cell line A2058, kindly provided by CEINGE (Naples, Italy), and SAN cells were derived from lymph nodal metastases and grown in DMEM and RPMI 1640, respectively, supplemented with 10% FBS, 2 mM L-glutamine, 100 IU/mL penicillin G, and 100 μg/mL streptomycin in humidified incubator at 37°C under 5% CO2 atmosphere. All cells were split and seeded every three days and used during the exponential phase of growth. Cell treatments were always carried after 24 h from plating.
The MTT assay was used to detect cell proliferation essentially as previously described. Briefly, A2058 and SAN cells were plated in 96-well microtiter plates (100 μL/well) at 4000 and 6000 cells/well, respectively. After 24-h seeding, cells were treated with the selected compounds added at 25, 50 or 100 μM concentration, or with 0.5% (v/v) DMSO as a vehicle control. After 24-h, 48-h or 72-h treatment, and upon the addition of 10 μL of MTT solution in the dark, the plate was incubated for 3 h at 37°C under CO2 atmosphere. After medium aspiration and solubilization of formazan crystals, absorbance was measured at 570 nm, using an ELISA plate reader (Bio-Rad, Milano, Italy).

A2058 cells [2] = experiment: Cell cycle analysis by PI flow cytometry, A2058 cells; settings: A2058, 100 μM
Description: As CDC25 phosphatases are key cell cycle regulators, the effect of 7 on cell cycle progression was investigated in detail. To this aim, asynchronously growing A2058 and SAN cells were treated at different times with 100 μM compound 7, and then cell cycle analysis was cytofluorimetrically monitored after propidium iodide (PI) incorporation. […] After 16-h incubation with […], cells were mainly and almost equally distributed in G0/G1 and G2/M phases (the ratio between them being 0.96), whereas the cellular population in the S phase was essentially undetectable. […] A similar general picture emerged from the effect of compound 7 on cell cycle progression of SAN cells (Supplementary Figure S3).
Cells were seeded into 6-well plates at 3 × 10^5 cells/well for 24 h at 37°C; after the addition of 100 μM 7 or 0.5% DMSO as a vehicle control, the incubation of treated cells continued for 16 or 24 h. After each treatment, cells were harvested with trypsin, centrifuged and the pellet was resuspended in phosphate-buffered saline (PBS). For cell cycle analysis, cells were fixed with 70% (v/v) cold ethanol and stored at −20°C for 1 h. […] After incubation at 4°C for 30 min, cells were analyzed with a FACScan flow cytometer (Becton Dickinson) for evaluating the distribution in cell cycle phases or the presence of nuclei with a DNA content lower than the diploid.

p53 protein levels [3] = experiment: Western blotting of p53 protein levels in A2058 cells; settings: A2058, 100 μM, 8 h; significant after 16 h
Description: (§1) The molecular mechanisms that regulate the cytotoxic potential of 7 in melanoma cells were further investigated through the evaluation of the activation state of protein kinase B (pAkt), one of the key proteins involved in the control and regulation of cell survival. To this aim, the protein levels of pAkt have been analyzed after 2- and 4-h incubation of A2058 cells with 7. […] It is known that Akt regulates the process of cell survival by phosphorylating different substrates, directly or indirectly involved in the apoptotic program. One of these targets is p53, a protein with a tumor-suppressor activity that regulates the cell cycle, as well as the expression of several genes involved in the apoptosis. […]
(§2) A2058 cells were seeded into 6-well-plates (3 × 10^5 cells/plate) for 24 h at 37°C and then treated at different times with 100 μM compound 7 or 0.5% DMSO. […] The protein concentration was determined by the method of Bradford, using bovine serum albumin (BSA) as standard. […] Membranes were then analysed by an enhanced chemiluminescence reaction, using Super Signal West Pico kit (Pierce) according to manufacturer's instruction; signals were visualized by autoradiography.

pAkt protein levels = experiment: Western blotting of pAkt (Ser473) in A2058 cells; settings: A2058, 100 μM, 2 and 4 h
Description: as §1, §2

p53 protein levels [4] = experiment: Western blotting of p53 protein levels in SAN cells; settings: 100 μM, 16 h (not shown)

SMILES: O=C(O)C1CCCCC1c1c2ccc(=O)cc-2oc2cc(O)ccc12 (stereo not drawn) [Compound 7, 2-(6-hydroxy-3-oxo-3H-xanthen-9-yl)cyclohexanecarboxylic acid]
- level of apoptosis caused by 7 in the presence of Z-VAD-FMK (A2058 cells [1]; A2058, 100 μM 7 + 100 μM Z-VAD-FMK, 48 h): significantly decreased
- apoptosis (nuclei with sub-diploid content) (A2058 cells [1]; A2058, 100 μM, 24-72 h): increase of apoptosis became significant at 48 h
- apoptosis after NAC pre-treatment (A2058 cells [1]; A2058, NAC pre-treatment, 100 μM 7, 48 h): in a great part reverted
- cell growth rate (SAN cells): significant reduction of cell growth rate
- ratio between G0/G1 and G2/M (A2058 cells [2]; 16 h, vehicle 0.96): 0.38
- ratio between G0/G1 and G2/M (A2058 cells [2]; 24 h, untreated 1.23): 0.45
- p53 protein level (p53 protein levels [3]): higher level of p53 compared to control
- protein level of pAkt with respect to total Akt (pAkt protein levels): early reduction of the protein level of pAkt
- p53 protein level (p53 protein levels [4]): higher level of this protein
